Measured values: the NIST ThermoML archive (doi:10.1016/j.jct.2017.11.017)
± gives the expanded uncertainty stated by the source.

Test: activity coefficient (dimensionless); of the first substance listed, at infinite dilution; xn = mol fraction of the nth substance listed
Conditions: 101.33 kPa, Liquid, Chromatography, x1 = 0

| SMILES | activity coefficient (318.15 K) | activity coefficient (328.15 K) | activity coefficient (338.15 K) | activity coefficient (348.15 K) | activity coefficient (358.15 K) | activity coefficient (368.15 K) | activity coefficient (298.15 K) | activity coefficient (308.15 K) |
| --- | --- | --- | --- | --- | --- | --- | --- | --- |
| Cc1ccccc1C [1,2-dimethylbenzene] + C[N+]1(CCCO)CCOCC1.N#C[N-]C#N | 18.2 ± 1.2 | 18.6 ± 1.3 | 18.8 ± 1.3 | 19 ± 1.3 | 19.2 ± 1.3 | 19.5 ± 1.3 | – | – |
| CCC[N+](=O)[O-] [1-nitropropane] + C[N+]1(CCCO)CCOCC1.N#C[N-]C#N | 3.26 ± 0.22 | 3.35 ± 0.23 | 3.47 ± 0.24 | 3.55 ± 0.24 | 3.65 ± 0.25 | 3.74 ± 0.25 | – | – |
| O [water] + C[n+]1ccn(CCCO)c1.N#CN=C=[N-] | 0.35 ± 0.03 | 0.36 ± 0.03 | 0.37 ± 0.03 | 0.38 ± 0.03 | 0.4 ± 0.03 | 0.41 ± 0.03 | – | – |
| CCCCCCC [heptane] + C[n+]1ccn(CCCO)c1.N#CN=C=[N-] | 447 ± 31 | 402 ± 28 | 366 ± 25 | 334 ± 23 | 306 ± 21 | – | 562 ± 39 | 504 ± 35 |
| CCOC(C)=O [ethyl acetate] + C[n+]1ccn(CCCO)c1.N#CN=C=[N-] | 5.72 ± 0.39 | 5.95 ± 0.41 | 6.18 ± 0.42 | 6.36 ± 0.43 | 6.61 ± 0.45 | 6.86 ± 0.47 | – | – |
| C1COCCO1 [1,4-dioxane] + C[N+]1(CCCO)CCOCC1.N#C[N-]C#N | 1.94 ± 0.13 | 2.07 ± 0.14 | 2.2 ± 0.15 | 2.33 ± 0.16 | 2.45 ± 0.17 | 2.59 ± 0.18 | – | – |
| C=CCCCCC [1-heptene] + C[N+]1(CCCO)CCOCC1.N#C[N-]C#N | 519 ± 36 | 425 ± 29 | 359 ± 25 | – | – | – | 793 ± 55 | 634 ± 44 |
| CCC(C)O (stereo unspecified) [butan-2-ol] + C[N+]1(CCCO)CCOCC1.N#C[N-]C#N | 4.46 ± 0.3 | 4.35 ± 0.3 | 4.27 ± 0.29 | 4.2 ± 0.29 | 4.15 ± 0.28 | 4.09 ± 0.28 | – | – |
| CCC(C)CC [3-methylpentane] + C[n+]1ccn(CCCO)c1.N#CN=C=[N-] | 249 ± 17 | 221 ± 15 | – | – | – | – | 327 ± 22 | 284 ± 20 |
| C=Cc1ccccc1 [styrene] + C[n+]1ccn(CCCO)c1.N#CN=C=[N-] | 5.97 ± 0.41 | 6.25 ± 0.43 | 6.57 ± 0.45 | 6.82 ± 0.46 | 7.14 ± 0.49 | 7.39 ± 0.5 | – | – |
| CCCCCCCC [octane] + C[n+]1ccn(CCCO)c1.N#CN=C=[N-] | 698 ± 48 | 626 ± 43 | 560 ± 39 | 509 ± 35 | 465 ± 32 | – | 881 ± 61 | 779 ± 54 |
| C1CCOC1 [tetrahydrofuran] + C[n+]1ccn(CCCO)c1.N#CN=C=[N-] | 3.07 ± 0.21 | 3.19 ± 0.22 | 3.33 ± 0.23 | 3.44 ± 0.23 | 3.57 ± 0.24 | 3.67 ± 0.25 | – | – |
| c1ccccc1 [benzene] + C[N+]1(CCCO)CCOCC1.N#C[N-]C#N | 6.97 ± 0.48 | 7.09 ± 0.48 | 7.2 ± 0.49 | 7.33 ± 0.5 | 7.41 ± 0.51 | 7.57 ± 0.52 | – | – |
| CCCC(C)=O [pentan-2-one] + C[n+]1ccn(CCCO)c1.N#CN=C=[N-] | 4.94 ± 0.34 | 5.14 ± 0.35 | 5.32 ± 0.36 | 5.46 ± 0.37 | 5.67 ± 0.39 | 5.81 ± 0.4 | – | – |
| Cc1ccccc1 [toluene] + C[N+]1(CCCO)CCOCC1.N#C[N-]C#N | 13 ± 0.9 | 13.1 ± 0.9 | 13.3 ± 0.9 | 13.4 ± 0.9 | 13.6 ± 0.9 | 13.7 ± 0.9 | – | – |
| CCCCCO [pentan-1-ol] + C[n+]1ccn(CCCO)c1.N#CN=C=[N-] | 4.16 ± 0.28 | 4.14 ± 0.28 | 4.1 ± 0.28 | 4.06 ± 0.28 | 4.08 ± 0.28 | 4.05 ± 0.28 | – | – |
| CCCCCCCCCC [decane] + C[N+]1(CCCO)CCOCC1.N#C[N-]C#N | 2220 ± 150 | 1980 ± 140 | 1770 ± 120 | 1590 ± 110 | 1430 ± 99 | 1310 ± 90 | – | 2530 ± 180 |
| C1CCCCCCC1 [cyclooctane] + C[n+]1ccn(CCCO)c1.N#CN=C=[N-] | 181 ± 12 | 165 ± 11 | 153 ± 11 | 143 ± 10 | 137 ± 9 | – | 216 ± 15 | 198 ± 14 |
| CCCc1ccccc1 [propylbenzene] + C[n+]1ccn(CCCO)c1.N#CN=C=[N-] | 26.8 ± 1.8 | 27.3 ± 1.9 | 27.6 ± 1.9 | 27.9 ± 1.9 | 28.2 ± 1.9 | 28.4 ± 1.9 | – | – |
| CO [methanol] + C[N+]1(CCCO)CCOCC1.N#C[N-]C#N | 0.753 ± 0.05 | 0.763 ± 0.05 | 0.771 ± 0.05 | 0.778 ± 0.051 | 0.788 ± 0.051 | 0.791 ± 0.051 | – | – |
| CCO [ethanol] + C[n+]1ccn(CCCO)c1.N#CN=C=[N-] | 1.17 ± 0.07 | 1.17 ± 0.07 | 1.18 ± 0.08 | 1.19 ± 0.08 | 1.2 ± 0.08 | 1.2 ± 0.08 | – | – |
| CC(C)O [propan-2-ol] + C[n+]1ccn(CCCO)c1.N#CN=C=[N-] | 1.92 ± 0.13 | 1.92 ± 0.13 | 1.92 ± 0.13 | 1.91 ± 0.13 | 1.91 ± 0.13 | 1.92 ± 0.13 | – | – |
| CCCCCCCC [octane] + C[N+]1(CCCO)CCOCC1.N#C[N-]C#N | 1460 ± 100 | 1260 ± 87 | 1090 ± 75 | – | – | – | 2070 ± 140 | 1730 ± 120 |
| CCCc1ccccc1 [propylbenzene] + C[N+]1(CCCO)CCOCC1.N#C[N-]C#N | 54.1 ± 3.7 | 53.2 ± 3.6 | 52.4 ± 3.6 | 51.5 ± 3.5 | 51 ± 3.5 | 50.2 ± 3.4 | – | – |
| C1CCCCCC1 [cycloheptane] + C[n+]1ccn(CCCO)c1.N#CN=C=[N-] | 128 ± 9 | 119 ± 8 | 111 ± 8 | 104 ± 7 | 97.8 ± 6.7 | – | 152 ± 10 | 139 ± 10 |
| CC(C)CO [2-methyl-1-propanol] + C[n+]1ccn(CCCO)c1.N#CN=C=[N-] | 2.79 ± 0.19 | 2.72 ± 0.19 | 2.68 ± 0.18 | 2.64 ± 0.18 | 2.6 ± 0.18 | 2.58 ± 0.18 | – | – |
| CCOCC [diethyl ether] + C[N+]1(CCCO)CCOCC1.N#C[N-]C#N | 44.7 ± 3.1 | 39.2 ± 2.7 | 35 ± 2.4 | – | – | – | 59.3 ± 4.1 | 51.3 ± 3.5 |
| Cc1ccc(C)cc1 [1,4-dimethylbenzene] + C[N+]1(CCCO)CCOCC1.N#C[N-]C#N | 23.2 ± 1.6 | 23.3 ± 1.6 | 23.5 ± 1.6 | 23.7 ± 1.6 | 23.8 ± 1.6 | 24.1 ± 1.6 | – | – |
| C#CCCCCCC [1-octyne] + C[n+]1ccn(CCCO)c1.N#CN=C=[N-] | 59.8 ± 4.1 | 59.6 ± 4.1 | 59.6 ± 4.1 | 59.4 ± 4.1 | 59.6 ± 4.1 | – | 60.1 ± 4.1 | 60.2 ± 4.1 |
| O [water] + C[N+]1(CCCO)CCOCC1.N#C[N-]C#N | 0.364 ± 0.033 | 0.373 ± 0.033 | 0.384 ± 0.033 | 0.395 ± 0.034 | 0.404 ± 0.034 | 0.414 ± 0.034 | – | – |
